PubChem BioAssay AID2060893 (Molecular Pharmacology Branch, DTP, NCI, 2025)

Test system: K86415-001-R-J1-PDC complex spheroids, viability
Experiment: Anticancer human tumor K86415-001-R-J1-PDC patient-derived lung adenocarcinoma cell line growth inhibition [RAS]
Conditions: for IC50: curve of first compound; for viability, T/C: stronger effect = lower value
Summary of the method: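 Multi-cell-type spheroids: tumor cells plus HUVEC endothelial cells and mesenchymal stem cells. RAS-pathway inhibitors were combined with targeted agents, each dosed in half-log steps down from clinical Cmax, or from 10 microM when Cmax was unknown.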

[1] = second compound 0.000949 µM, first compound 0.0316 µM
[2] = second compound 0.000949 µM, first compound 0.1 µM
[3] = second compound 0.000949 µM, first compound 0.316 µM
[4] = second compound 0.000949 µM, first compound 1 µM
[5] = second compound 0.003 µM, first compound 0.0316 µM
[6] = second compound 0.003 µM, first compound 0.1 µM
[7] = second compound 0.003 µM, first compound 0.316 µM
[8] = second compound 0.003 µM, first compound 1 µM
[9] = second compound 0.00949 µM, first compound 0.0316 µM
[10] = second compound 0.00949 µM, first compound 0.1 µM
[11] = second compound 0.00949 µM, first compound 0.316 µM
[12] = second compound 0.00949 µM, first compound 1 µM
[13] = second compound 0.03 µM, first compound 0.0316 µM
[14] = second compound 0.03 µM, first compound 0.1 µM
[15] = second compound 0.03 µM, first compound 0.316 µM
[16] = second compound 0.03 µM, first compound 1 µM
[17] = second compound 0.0949 µM, first compound 0.0316 µM
[18] = second compound 0.0949 µM, first compound 0.1 µM
[19] = second compound 0.0949 µM, first compound 0.316 µM
[20] = second compound 0.0949 µM, first compound 1 µM
[21] = second compound 0.3 µM, first compound 0.0316 µM
[22] = second compound 0.3 µM, first compound 0.1 µM
[23] = second compound 0.3 µM, first compound 0.316 µM
[24] = second compound 0.3 µM, first compound 1 µM
[25] = second compound 0.000949 µM, first compound 3.16 µM
[26] = second compound 0.000949 µM, first compound 10 µM
[27] = second compound 0.003 µM, first compound 3.16 µM
[28] = second compound 0.003 µM, first compound 10 µM
[29] = second compound 0.00949 µM, first compound 3.16 µM
[30] = second compound 0.00949 µM, first compound 10 µM
[31] = second compound 0.03 µM, first compound 3.16 µM
[32] = second compound 0.03 µM, first compound 10 µM
[33] = second compound 0.0949 µM, first compound 3.16 µM
[34] = second compound 0.0949 µM, first compound 10 µM
[35] = second compound 0.3 µM, first compound 3.16 µM
[36] = second compound 0.3 µM, first compound 10 µM
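Also: spheroids exposed to agents for seven days before readout.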

## CCN1CCN(Cc2ccc(Nc3ncc(F)c(-c4cc(F)c5nc(C)n(C(C)C)c5c4)n3)nc2)CC1 + CCn1c(-c2cccnc2C(C)OC)c2c3cc(ccc31)N1CCOC(CC(NC(=O)C(C(C)C)N(C)C(=O)C3(F)CCN(C(=O)C#CC(C)(C)N(C)C)CC3)C(=O)N3CCCC(N3)C(=O)OCC(C)(C)C2)C1
Second compound 0.000949 µM
  IC50: < 3.16 nM
Second compound 0.003 µM
  IC50: < 3.16 nM
Second compound 0.00949 µM
  IC50: < 3.16 nM
Second compound 0.03 µM
  IC50: < 3.16 nM
Second compound 0.0949 µM
  IC50: < 3.16 nM
Second compound 0.3 µM
  IC50: < 3.16 nM
Second compound 0.000949 µM, first compound 0.00316 µM
  viability, T/C: 39.1%
Second compound 0.000949 µM, first compound 0.01 µM
  viability, T/C: 31.2%
[1]
  viability, T/C: 20%
[2]
  viability, T/C: 30.3%
[3]
  viability, T/C: 31.1%
[4]
  viability, T/C: 20.5%
Second compound 0.003 µM, first compound 0.00316 µM
  viability, T/C: 12.1%
Second compound 0.003 µM, first compound 0.01 µM
  viability, T/C: 13.1%
[5]
  viability, T/C: 12.2%
[6]
  viability, T/C: 13.9%
[7]
  viability, T/C: 16.7%
[8]
  viability, T/C: 14.6%
Second compound 0.00949 µM, first compound 0.00316 µM
  viability, T/C: 11.7%
Second compound 0.00949 µM, first compound 0.01 µM
  viability, T/C: 12.4%
[9]
  viability, T/C: 10.6%
[10]
  viability, T/C: 11.8%
[11]
  viability, T/C: 14.3%
[12]
  viability, T/C: 19.3%
Second compound 0.03 µM, first compound 0.00316 µM
  viability, T/C: 14%
Second compound 0.03 µM, first compound 0.01 µM
  viability, T/C: 11.8%
[13]
  viability, T/C: 11.1%
[14]
  viability, T/C: 14%
[15]
  viability, T/C: 14.5%
[16]
  viability, T/C: 13.9%
Second compound 0.0949 µM, first compound 0.00316 µM
  viability, T/C: 12.4%
Second compound 0.0949 µM, first compound 0.01 µM
  viability, T/C: 14.8%
[17]
  viability, T/C: 15.8%
[18]
  viability, T/C: 14.8%
[19]
  viability, T/C: 14.4%
[20]
  viability, T/C: 13.8%
Second compound 0.3 µM, first compound 0.00316 µM
  viability, T/C: 13.6%
Second compound 0.3 µM, first compound 0.01 µM
  viability, T/C: 12%
[21]
  viability, T/C: 11.1%
[22]
  viability, T/C: 10.8%
[23]
  viability, T/C: 9.64%
[24]
  viability, T/C: 11.7%

## Cc1nc(N2CCC3(CC2)COC(C)C3N)c(CO)nc1Sc1ccnc(N)c1Cl (stereo unspecified) + CCn1c(-c2cccnc2C(C)OC)c2c3cc(ccc31)N1CCOC(CC(NC(=O)C(C(C)C)N(C)C(=O)C3(F)CCN(C(=O)C#CC(C)(C)N(C)C)CC3)C(=O)N3CCCC(N3)C(=O)OCC(C)(C)C2)C1
Second compound 0.000949 µM
  IC50: < 31.6 nM
Second compound 0.003 µM
  IC50: < 31.6 nM
Second compound 0.00949 µM
  IC50: < 31.6 nM
Second compound 0.03 µM
  IC50: < 31.6 nM
Second compound 0.0949 µM
  IC50: < 31.6 nM
Second compound 0.3 µM
  IC50: < 31.6 nM
[1]
  viability, T/C: 29.3%
[2]
  viability, T/C: 16.5%
[3]
  viability, T/C: 7.93%
[4]
  viability, T/C: 9.19%
[25]
  viability, T/C: 6.66%
[26]
  viability, T/C: 4.12%
[5]
  viability, T/C: 8.24%
[6]
  viability, T/C: 6.74%
[7]
  viability, T/C: 5.5%
[8]
  viability, T/C: 7.84%
[27]
  viability, T/C: 3.89%
[28]
  viability, T/C: 3.06%
[9]
  viability, T/C: 7.59%
[10]
  viability, T/C: 5.87%
[11]
  viability, T/C: 5.22%
[12]
  viability, T/C: 4.38%
[29]
  viability, T/C: 3.17%
[30]
  viability, T/C: 3.06%
[13]
  viability, T/C: 10.5%
[14]
  viability, T/C: 6.71%
[15]
  viability, T/C: 5.16%
[16]
  viability, T/C: 4.22%
[31]
  viability, T/C: 3.35%
[32]
  viability, T/C: 3.62%
[17]
  viability, T/C: 9.27%
[18]
  viability, T/C: 6.46%
[19]
  viability, T/C: 4.18%
[20]
  viability, T/C: 4.43%
[33]
  viability, T/C: 3.06%
[34]
  viability, T/C: 2.77%
[21]
  viability, T/C: 8.31%
[22]
  viability, T/C: 6.71%
[23]
  viability, T/C: 5.12%
[24]
  viability, T/C: 4.01%
[35]
  viability, T/C: 3.5%
[36]
  viability, T/C: 2.86%

## NC1c2ccccc2OC12CCN(c1cnc3c(N4CCCc5ncccc54)n[nH]c3n1)CC2 (stereo unspecified) + CCn1c(-c2cccnc2C(C)OC)c2c3cc(ccc31)N1CCOC(CC(NC(=O)C(C(C)C)N(C)C(=O)C3(F)CCN(C(=O)C#CC(C)(C)N(C)C)CC3)C(=O)N3CCCC(N3)C(=O)OCC(C)(C)C2)C1
Second compound 0.000949 µM
  IC50: < 31.6 nM
Second compound 0.003 µM
  IC50: < 31.6 nM
Second compound 0.00949 µM
  IC50: < 31.6 nM
Second compound 0.03 µM
  IC50: < 31.6 nM
Second compound 0.0949 µM
  IC50: < 31.6 nM
Second compound 0.3 µM
  IC50: < 31.6 nM
[1]
  viability, T/C: 13.4%
[2]
  viability, T/C: 8.22%
[3]
  viability, T/C: 6.07%
[4]
  viability, T/C: 6.52%
[25]
  viability, T/C: 7.18%
[26]
  viability, T/C: 5.23%
[5]
  viability, T/C: 5.86%
[6]
  viability, T/C: 4.35%
[7]
  viability, T/C: 4.13%
[8]
  viability, T/C: 4.19%
[27]
  viability, T/C: 4.18%
[28]
  viability, T/C: 3.63%
[9]
  viability, T/C: 6.83%
[10]
  viability, T/C: 4.56%
[11]
  viability, T/C: 3.88%
[12]
  viability, T/C: 3.79%
[29]
  viability, T/C: 3.72%
[30]
  viability, T/C: 4.04%
[13]
  viability, T/C: 5.26%
[14]
  viability, T/C: 5.42%
[15]
  viability, T/C: 4.52%
[16]
  viability, T/C: 3.97%
[31]
  viability, T/C: 2.82%
[32]
  viability, T/C: 3.8%
[17]
  viability, T/C: 6.89%
[18]
  viability, T/C: 5.55%
[19]
  viability, T/C: 3.94%
[20]
  viability, T/C: 3.94%
[33]
  viability, T/C: 2.53%
[34]
  viability, T/C: 3.05%
[21]
  viability, T/C: 5.95%
[22]
  viability, T/C: 4.18%
[23]
  viability, T/C: 4.35%
[24]
  viability, T/C: 2.49%
[35]
  viability, T/C: 2.46%
[36]
  viability, T/C: 2.39%
